From patent US5089623A, “Certain imidate insecticides” (Imperial Chemical Industries Plc, priority 1990, dated 1992)

What was measured:
Assay type in all cases: in vivo
[1] = tested on: Housefly [Musca domestica]; experiment: Housefly insecticidal test (HF); details: per 25 female houseflies, 48 hours
[2] = tested on: Cabbage Looper [Trichoplusia ni (Hubner)]; experiment: Cabbage looper test (CL); details: second-instar larvae, 3-5 days, percent in solution
[3] = tested on: Tobacco Budworm [Heliothis virescens (Fabricius)]; experiment: Tobacco budworm contact test (TBW-C); details: second-instar larvae, 5 days, percent in solution
Description: The compounds in Tables 1 and 2 above were tested for insecticidal activity using the following testing procedures. LC50 values, based on the results of these tests and calculated according to dosage-mortality curves, are expressed in Table 3.
Tobacco Budworm [Heliothis virescens (Fabricius)]
(a) Contact: Test compounds were diluted in a 50-50 acetonewater solution. Cotton (Gossypium sp.) cotyledons were immersed in the test solutions for 2-3 seconds and placed on a wire screen to dry. The dried leaves were placed in petri dishes containing a moistened piece of filter paper and infested with 5 second-instar tobacco budworm larvae. The dishes were placed in a high humidity chamber for 5 days, and percent mortality of the larvae recorded. Test concentrations ranged from 0.1% downward. The LC-50 values are expressed below in Table 3 under the heading "TBW-C" in terms of percent of the test compound in the solution.

[4] = tested on: Tobacco Budworm [Heliothis virescens (Fabricius)] eggs; experiment: Tobacco budworm egg test (TBW-E); details: percent in solution
[5] = tested on: Aster Leafhopper [Macrosteles fascifrens (Stal)]; experiment: Aster leafhopper test (LH); details: adults/nymphs, 48 hours, percent in solution
[6] = tested on: Maize weevil [Sitophilus Zeamais (Motschulsky)]; experiment: Maize weevil test (MW); details: adult weevils, treated corn seeds, 48 hours, percent in solution
Summary of the method: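 Adult weevils (10) were placed with four corn seeds that had been dipped 2-3 s in compound dissolved in 50:50 acetone:water, then dried, and held at about 25° C. Mortality was scored at 48 h. LC50 was taken from dosage-mortality curves and expressed as percent compound in solution, from a 0.01% top concentration.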

Row | SMILES | LC50 HF [1] [µg] | LC50 CL [2] [%] | LC50 TBW C [3] [%] | LC50 TBW E [4] [%] | LC50 LH [5] [%] | LC50 MW [6] [%]
1 | ClC(Cl)C(=Nc1ccccc1)OCc1cccc(Oc2ccccc2)c1 [Compound 41] | 4.5 | 0.015 | 0.0035 | 0.04 | – | –
2 | Fc1ccc(N=C(OCc2cccc(Oc3ccccc3)c2)C(Cl)Cl)cc1 [Compound 44] | 3 | – | < 0.1 | 0.06 | – | –
3 | CC(C)C(=Nc1c(F)c(F)c(F)c(F)c1F)OCc1cccc(Oc2ccccc2)c1 [Compound 51] | 25 | 0.001 | 0.0025 | 0.067 | 0.001 | –
4 | Cc1c(F)cccc1N=C(OCc1cccc(Oc2ccccc2)c1)C(C)C [Compound 73] | 25 | 0.004 | 0.005 | 0.025 | – | –
5 | Cc1ccc(F)cc1N=C(OCc1cccc(Oc2ccccc2)c1)C(C)C [Compound 74] | 25 | 0.005 | 0.0025 | 0.025 | – | –
6 | Cc1ccc(N=C(OCc2cccc(Oc3ccccc3)c2)C(C)C)cc1F [Compound 75] | 5 | 0.0025 | 0.0075 | 0.01 | 0.0008 | –
7 | COc1ccc(N=C(OCc2cccc(Oc3ccccc3)c2)C(C)C)cc1Cl [Compound 95] | 10 | 0.0025 | 0.004 | 0.025 | – | –
8 | Cc1cc(Cl)ccc1N=C(OCc1cccc(Oc2ccccc2)c1)C(C)C [Compound 96] | 35 | 0.003 | 0.0025 | 0.025 | – | –
9 | CC(C)(C)c1ccc(N=C(OCc2cccc(Oc3ccccc3)c2)C(Cl)Cl)cc1 [Compound 140] | > 100 | < 0.1 | > 0.1 | > 0.1 | – | –
10 | COc1ccccc1N=C(OCc1cccc(Oc2ccccc2)c1)C(C)C [Compound 145] | > 100 | 0.05 | 0.05 | > 0.1 | > 0.05 | –
11 | COc1ccc(N=C(OCc2cccc(Oc3ccccc3)c2)C(C)C)c(OC)c1 [Compound 146] | 40 | 0.017 | 0.025 | > 0.1 | – | –
12 | CC(=O)c1ccc(N=C(OCc2cccc(Oc3ccccc3)c2)C(C)C)cc1 [Compound 147] | 10 | 0.01 | 0.0075 | > 0.1 | – | –
13 | CC(C)C(=Nc1cc(F)cc(F)c1)OCc1cccc(Oc2ccc(F)cc2)c1 [Compound 199] | 8 | 0.0006 | 0.003 | > 0.1 | – | > 0.01
14 | CC(C)(C)C(=Nc1ccc(F)c(Cl)c1)OCc1cccc(Oc2ccc(F)cc2)c1 [Compound 204] | > 100 | 0.0023 | 0.004 | > 0.1 | – | > 0.01
15 | CCC(C)C(=Nc1ccc(F)c(Cl)c1)OCc1cccc(Oc2ccc(F)cc2)c1 (stereo not shown) [Compound 210] | 35 | 0.00028 | 0.0015 | 0.045 | – | > 0.01
16 | CC(C)C(=Nc1ccc2c(c1)OC(C)(C)O2)OCc1cccc(Oc2ccc(F)cc2)c1 [Compound 219] | 50 | 0.00025 | 0.004 | 0.027 | – | > 0.01
17 | CC(C)C(=Nc1cccc(C(F)(F)F)c1)OCc1ccc(F)c(Oc2ccc(Cl)cc2)c1 [Compound 266] | 10 | 0.00016 | 0.0007 | 0.06 | – | –
18 | C=C(C)C(=Nc1ccc(C(F)(F)F)cc1)OCc1ccc(F)c(Oc2ccc(Cl)cc2)c1 [Compound 432] | < 100 | 0.0012 | < 0.1 | 0.032 | – | > 0.01
19 | CC(C)C(=Nc1ccc(C(F)(F)F)cc1)OCc1cccc(Cc2ccccc2)c1 [Compound 543] | < 100 | 0.0008 | – | > 0.1 | < 0.05 | > 0.01
20 | COCc1c(F)c(F)c(COC(=Nc2ccc(C(C)(C)C)cc2)C(C)C)c(F)c1F [Compound 544] | > 100 | > 0.1 | – | > 0.1 | > 0.05 | > 0.01
21 | Cc1cccc(N=C(OCc2cccc(Oc3ccc(Cl)cc3)n2)C(C)C)c1 [Compound 545] | < 100 | > 0.1 | – | > 0.1 | > 0.05 | > 0.01
22 | C#CCc1c(F)c(F)c(COC(=Nc2cccc(C(F)(F)F)c2)C(C)C)c(F)c1F [Compound 546] | < 100 | 0.0001 | – | > 0.1 | < 0.05 | 0.0032
23 | C#CCc1c(F)c(F)c(COC(=Nc2ccc3c(c2)OCO3)C(C)C)c(F)c1F [Compound 547] | < 100 | 0.0005 | – | 0.05 | < 0.05 | > 0.01
24 | CC(C)C(=Nc1ccc(F)c(Cl)c1)OCc1cccc(Oc2ccccn2)c1 [Compound 549] | < 100 | > 0.1 | – | > 0.1 | > 0.05 | > 0.01
